Experiments:
REC-1 T474I cell lines = assay: Cell proliferation assay REC-1 BTK T474I knock-in cells (ATPlite, 72 hours); type: cell-based; conditions: Homo sapiens, Rec1; 72 hours; read-out: IC50 REC-1 T474I
Protocol: Cell proliferation assay Generation of BTK […] knock-in cell lines wt-REC-1 cell lines expressing mutant BTK were created at Synthego Corporation. Cell lines expressing BTK […] was generated via CRISPR/Cas9. Monoclonal REC-1 […] cell lines were obtained by single cell cloning. The mutation status of all cell lines was confirmed via sequencing. […] Luminescence was recorded on an Envision multimode reader. The cell signal at the start of incubation was recorded separately in order to distinguish between cell population growth and cell death. In addition, maximum growth was determined by incubation of a duplicate without compound in the presence of 0.3% DMSO. Percentage growth was used as the main y-axis signal.

[1] = molecular target: full-length BTK C481S enzyme (Homo sapiens (Human), UniProt Q06187, C481S); assay: Biochemical kinase assay BTK C481S (IMAP)
Protocol: Biochemical kinase assay BTK […] To determine the inhibitory activity of compounds on BTK C481S enzyme activity, the IMAP® assay (Molecular Devices) was used. […] After pre-incubation of 1 hour in the dark at room temperature, fluorescein-labeled MBP-derived substrate peptide (Molecular Devices, cat. no. RP 7123) was added, followed by ATP to start the reaction. Final enzyme concentration was 1.2 nM final substrate concentration 50 nM, and final ATP concentration was 7 μM. The reaction was allowed to proceed for 2 hours at room temperature in the dark. The reaction was stopped by quenching with IMAP progressive binding solution according to the protocol of the manufacturer (Molecular Devices). Fluorescein polarization was measured on an Envision multimode reader (Perkin Elmer, Waltham, MA, U.S.A.). IC50 were calculated using XLfitTM5 software (ID Business Solutions, Ltd., Surrey, U.K.). Results of the BTK […] binding affinity are shown in Table 1 below. • IC50 BTK […]: […]

[2] = system: wt-REC-1 mantle cell lymphoma cells; assay: Cell proliferation assay wt-REC-1 (ATPlite, 72 hours); type: cell-based; conditions: 72 h; read-out: IC50 wt-REC-1
Protocol: Results of the BTK […] binding affinity are shown in Table 1 below. • IC50 BTK […]: […] wt-REC-1 mantle cell lymphoma cells were purchased from American Type Culture Collection via Synthego Corporation (cat. no. CRL-3004, ATCC). […] Luminescence was recorded on an Envision multimode reader. The cell signal at the start of incubation was recorded separately in order to distinguish between cell population growth and cell death. In addition, maximum growth was determined by incubation of a duplicate without compound in the presence of 0.3% DMSO. Percentage growth was used as the main y-axis signal. IC50s were fitted by non-linear regression using IDBS XLfitTM5 using a 4-parameter logistic curve, yielding a maximum signal, minimum signal, hill-parameter and IC50. Results of the wt-REC-1 proliferation are shown in Table 1 below. • IC50 wt-REC-1: […]

[3] = molecular target: full-length wt-BTK enzyme (Homo sapiens (Human), UniProt Q06187); assay: Biochemical kinase assay wt-BTK (IMAP)
Protocol: Biochemical kinase assay wt-BTK To determine the inhibitory activity of compounds on wt-BTK enzyme activity, the IMAP® assay (Molecular Devices) was used. […] After pre-incubation of 1 hour in the dark at room temperature, fluorescein-labeled MBP-derived substrate peptide (Molecular Devices, cat. no. RP 7123) was added, followed by ATP to start the reaction. Final enzyme concentration was 1.2 nM, final substrate concentration 50 nM, and final ATP concentration was 4 μM. The reaction was allowed to proceed for 2 hours at room temperature in the dark. The reaction was stopped by quenching with IMAP progressive binding solution according to the protocol of the manufacturer (Molecular Devices). Fluorescein polarization was measured on an Envision multimode reader (Perkin Elmer, Waltham, MA, U.S.A.). […] Results of the wt-BTK binding affinity are shown in Table 1 below. • IC50 wt-BTK: […]

full-length wt-BTK enzyme, sequence (Q06187 whole entry): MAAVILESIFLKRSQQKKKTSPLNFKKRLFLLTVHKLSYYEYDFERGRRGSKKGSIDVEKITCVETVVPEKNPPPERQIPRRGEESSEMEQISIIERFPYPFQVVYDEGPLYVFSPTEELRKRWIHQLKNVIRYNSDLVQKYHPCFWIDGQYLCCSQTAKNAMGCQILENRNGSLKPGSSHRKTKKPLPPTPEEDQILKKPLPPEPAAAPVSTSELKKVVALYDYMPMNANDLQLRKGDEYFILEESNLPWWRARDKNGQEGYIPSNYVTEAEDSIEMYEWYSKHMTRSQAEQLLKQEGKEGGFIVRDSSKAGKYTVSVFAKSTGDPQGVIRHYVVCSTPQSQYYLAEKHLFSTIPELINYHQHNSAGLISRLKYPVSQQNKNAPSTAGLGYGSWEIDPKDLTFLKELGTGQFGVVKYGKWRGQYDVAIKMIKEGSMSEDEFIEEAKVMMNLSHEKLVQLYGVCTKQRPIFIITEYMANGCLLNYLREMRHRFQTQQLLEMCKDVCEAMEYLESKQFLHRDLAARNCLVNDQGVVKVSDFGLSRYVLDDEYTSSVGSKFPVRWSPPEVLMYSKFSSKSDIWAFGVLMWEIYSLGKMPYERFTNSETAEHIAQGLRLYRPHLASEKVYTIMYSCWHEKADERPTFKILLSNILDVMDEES
full-length BTK C481S enzyme, sequence (Q06187 whole entry C481S): as the sequence (Q06187 whole entry) above, with C481S counted along it

SMILES	IC50 [1] [nM]	IC50 [2] [nM]	IC50 [3] [nM]	IC50 (REC-1 T474I cell lines) [nM]
Nc1ncc2c3c1c(-c1ccc(C(=O)Nc4cc(C(F)(F)F)ccn4)cc1)nn3[C@@H]1CCC[C@H](C1)NC(=O)CCCC/C=C/C2 [Example 98a]	50 to 500	100 to 1000	50 to 500	500 to 10000
Nc1ncc2c3c1c(-c1ccc(C(=O)Nc4cc(C(F)(F)F)ccn4)cc1)nn3[C@@H]1CCC[C@H](C1)C(=O)NCCCCC2 [Example 116]	50 to 500	1000 to 10000	50 to 500	500 to 10000
C[C@@H]1CCn2nc(-c3ccc(C(=O)Nc4cc(C(F)(F)F)ccn4)cc3)c3c(N)ncc(c32)CCCOCC(=O)N1 [Example 122]	5 to 50	100 to 1000	5 to 50	500 to 10000
Nc1ncc2n3c(nc(-c4ccc(C(=O)Nc5cc(C(F)(F)F)ccn5)cc4)c13)[C@@H]1CCC[C@H](C1)NC(=O)CC/C=C/C2 [Example 136]	5 to 50	1000 to 10000	5 to 50	
C[C@@H]1CCn2nc(-c3ccc(C(=O)Nc4cc(C(F)(F)F)ccn4)cc3)c3c(N)ncc(c32)C/C=C/CCCC(=O)N1 [Example 109b]	50 to 500	1000 to 10000	50 to 500	500 to 10000
Nc1ncc2c3c1c(-c1ccc(C(=O)Nc4ccccn4)cc1)nn3[C@@H]1CCC[C@H](C1)NC(=O)CCCCCC2 [Example 125]	5 to 50	100 to 1000	5 to 50	500 to 10000
Nc1ncc2c3c1c(-c1ccc(C(=O)Nc4ccccn4)cc1)nn3[C@@H]1CCC[C@H](C1)NC(=O)CCCC/C=C/C2 [Example 100a]	50 to 500	1000 to 10000	50 to 500	500 to 10000
Nc1ncc2c3c1c(-c1ccc(C(=O)Nc4cc(C(F)(F)F)ccn4)cc1)nn3[C@@H]1CCC[C@H](C1)C(=O)NCCCCC/C=C/C2 [Example 89a]	5 to 50	100 to 1000	5 to 50	500 to 10000
Nc1ncc2c3c1c(-c1ccc(C(=O)Nc4cc(C(F)(F)F)ccn4)cc1)nn3[C@@H]1CCC[C@H](C1)C(=O)NCCCCCCCCC2 [Example 120]	5 to 50	100 to 1000	5 to 50	500 to 10000
Nc1ncc2c3c1c(-c1ccc(C(=O)Nc4ccccn4)cc1)nn3[C@@H]1CCC[C@H](C1)NC(=O)CCCCC2 [Example 124]	50 to 500	100 to 1000	50 to 500	500 to 10000
Nc1ncc2c3c1c(-c1ccc(C(=O)Nc4ccccn4)cc1)nn3[C@@H]1CCC[C@H](C1)NC(=O)CCC/C=C/C2 [Example 99a]	50 to 500	1000 to 10000	50 to 500	500 to 10000
Nc1ncc2n3c(nc(-c4ccc(C(=O)Nc5cc(C(F)(F)F)ccn5)cc4)c13)CCCNC(=O)CCC=CC2 [Example 134]	5 to 50	1000 to 10000	5 to 50	

More lines, main results first:

IC50 [1] [nM]	IC50 [2] [nM]	IC50 [3] [nM]	SMILES	IC50 (REC-1 T474I cell lines) [nM]
5 to 50	1000 to 10000	5 to 50	Nc1ncc2c3c1c(-c1ccc(C(=O)Nc4cc(C(F)(F)F)ccn4)cc1)nn3[C@@H]1CCC[C@H](C1)NC(=O)CC/C=C/C2 [Example 95]	500 to 10000
< 5	100 to 1000	< 5	Nc1ncc2c3c1c(-c1ccc(C(=O)Nc4cc(C(F)(F)F)ccn4)cc1)nn3[C@@H]1CCC[C@H](C1)NC(=O)CCCCNC/C=C/2 [Example 22]	500 to 10000
< 5	< 100	< 5	Nc1ncc2c3c1c(-c1ccc(C(=O)Nc4ccccn4)cc1)nn3[C@@H]1CCC[C@H](C1)NC(=O)CCCCC/C=C/C2 [Example 102a]	< 100
< 5	1000 to 10000	< 5	C[C@@H]1CCn2nc(-c3ccc(C(=O)Nc4cc(C(F)(F)F)ccn4)cc3)c3c(N)ncc(c32)/C=C/C[S+]([O-])CC(=O)N1 (some centres unmarked) [Example 65]	500 to 10000
5 to 50	1000 to 10000	5 to 50	Nc1ncc2c3c1c(-c1ccc(C(=O)Nc4cc(C(F)(F)F)ccn4)cc1)nn3[C@@H]1CCC[C@H](C1)NC(=O)CCCNC/C=C/C2 [Example 107]	500 to 10000
5 to 50	1000 to 10000	5 to 50	Nc1ncc2c3c1c(-c1ccc(C(=O)Nc4ccccn4)cc1)nn3[C@@H]1CCC[C@H](C1)NC(=O)CC/C=C\C2 [Example 96b]	500 to 10000
5 to 50	1000 to 10000	5 to 50	Nc1ncc2n3c(nc(-c4ccc(C(=O)Nc5cc(C(F)(F)F)ccn5)cc4)c13)CCCNC(=O)CCCC=CC2 [Example 135]	
5 to 50	100 to 1000	5 to 50	Nc1ncc2c3c1c(-c1ccc(C(=O)Nc4cc(C(F)(F)F)ccn4)cc1)nn3[C@@H]1CCC[C@H](C1)C(=O)NCCC/C=C/C2 [Example 84a]	500 to 10000
5 to 50	1000 to 10000	5 to 50	Nc1ncc2c3c1c(-c1ccc(C(=O)Nc4cc(C(F)(F)F)ccn4)cc1)nn3[C@@H]1CCC[C@H](C1)NC(=O)COC/C=C/C2 [Example 97a]	500 to 10000
5 to 50	100 to 1000	5 to 50	C[C@@H]1CCn2nc(-c3ccc(C(=O)Nc4cc(C(F)(F)F)ccn4)cc3)c3c(N)ncc(c32)CC=CCCCCC(=O)N1 [Example 110]	500 to 10000
5 to 50	100 to 1000	5 to 50	Nc1ncc2c3c1c(-c1ccc(C(=O)Nc4cc(C(F)(F)F)ccn4)cc1)nn3[C@@H]1CCC[C@H](C1)C(=O)NCCCCCC/C=C\C2 [Example 92]	500 to 10000
< 5	100 to 1000	5 to 50	C[C@@H]1CCn2nc(-c3ccc(C(=O)Nc4cc(C(F)(F)F)ccn4)cc3)c3c(N)ncc(c32)CCCCCCC(=O)N1 [Example 121]	500 to 10000
< 5	< 100	< 5	Nc1ncc2c3c1c(-c1ccc(C(=O)Nc4ccccn4)cc1)nn3[C@@H]1CCC[C@H](C1)NC(=O)CCCCCCC2 [Example 126]	100 to 500
< 5	100 to 1000	< 5	C[C@@H]1CCn2nc(-c3ccc(C(=O)Nc4cc(C(F)(F)F)ccn4)cc3)c3c(N)ncc(c32)/C=C/CCCCCCCC(=O)N1 [Example 63]	500 to 10000
< 5	100 to 1000	5 to 50	C[C@@H]1CCn2nc(-c3ccc(C(=O)Nc4cc(C(F)(F)F)ccn4)cc3)c3c(N)ncc(c32)/C=C/CCCCCCCCC(=O)N1 [Example 64]	500 to 10000
< 5	100 to 1000	< 5	Nc1ncc2c3c1c(-c1ccc(C(=O)Nc4cc(C(F)(F)F)ccn4)cc1)nn3[C@@H]1CCC[C@H](C1)NC(=O)CCC/C=C\C2 [Example 94b]	500 to 10000
< 5	100 to 1000	5 to 50	Nc1ncc2c3c1c(-c1ccc(C(=O)Nc4ccccn4)cc1)nn3[C@@H]1CCC[C@H](C1)C(=O)NCCCCCC/C=C\C2 [Example 93]	500 to 10000
< 5	100 to 1000	5 to 50	Nc1ncc2c3c1c(-c1ccc(C(=O)Nc4cc(C(F)(F)F)ccn4)cc1)nn3[C@@H]1CCC[C@H](C1)C(=O)NCCC/C=C\C2 [Example 84b]	

From patent US20250074911A1, “MACROCYCLIC BTK INHIBITORS” (Crossfire Oncology Holding B.V., priority 2021, published 2025)
